Reference: PubChem BioAssay (NCI)
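Cultured in 96-well plates, cells were exposed to test compound for 48 hours across five concentrations. Here, GI50 denotes the concentration required for 50% inhibition of growth. TGI is the concentration that stops growth completely.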

What was measured:
Assay in all cases: NCI tumour cell line growth inhibition, 48 h
OVCAR-4 ovarian = tested on: OVCAR-4 ovarian
CAKI-1 renal = tested on: CAKI-1 renal
A498 renal = tested on: A498 renal
SN12C renal = tested on: SN12C renal
HCT-15 colon = tested on: HCT-15 colon
HOP-92 NSCLC = tested on: HOP-92 NSCLC
RPMI-8226 leukemia = tested on: RPMI-8226 leukemia
MCF7 breast = tested on: MCF7 breast
NCI-H226 lung = tested on: NCI-H226 lung
UO-31 renal = tested on: UO-31 renal
KM12 colon = tested on: KM12 colon
UACC-257 melanoma = tested on: UACC-257 melanoma
BT-549 breast = tested on: BT-549 breast
HOP-62 NSCLC = tested on: HOP-62 NSCLC
PC-3 prostate = tested on: PC-3 prostate
SNB-75 CNS = tested on: SNB-75 CNS
COLO 205 colon = tested on: COLO 205 colon
MDA-MB-435 = tested on: MDA-MB-435
TK-10 renal = tested on: TK-10 renal
SF-295 CNS = tested on: SF-295 CNS
SF-268 CNS = tested on: SF-268 CNS
HCC-2998 colon = tested on: HCC-2998 colon
SK-MEL-5 melanoma = tested on: SK-MEL-5 melanoma
HCT-116 colon = tested on: HCT-116 colon
SNB-19 CNS = tested on: SNB-19 CNS
SW-620 colon = tested on: SW-620 colon
SK-OV-3 ovarian = tested on: SK-OV-3 ovarian
MDA-MB-231 breast = tested on: MDA-MB-231 breast
SK-MEL-28 melanoma = tested on: SK-MEL-28 melanoma
NCI-H522 lung = tested on: NCI-H522 lung
M14 melanoma = tested on: M14 melanoma
SK-MEL-2 melanoma = tested on: SK-MEL-2 melanoma
MALME-3M melanoma = tested on: MALME-3M melanoma
OVCAR-8 ovarian = tested on: OVCAR-8 ovarian
ACHN renal = tested on: ACHN renal
OVCAR-3 ovarian = tested on: OVCAR-3 ovarian
IGROV1 ovarian = tested on: IGROV1 ovarian
DU-145 prostate = tested on: DU-145 prostate
OVCAR-5 ovarian = tested on: OVCAR-5 ovarian
SR leukemia = tested on: SR leukemia
UACC-62 melanoma = tested on: UACC-62 melanoma
786-0 renal = tested on: 786-0 renal
CCRF-CEM leukemia = tested on: CCRF-CEM leukemia
LOX IMVI melanoma = tested on: LOX IMVI melanoma
U251 CNS = tested on: U251 CNS
NCI-H23 lung = tested on: NCI-H23 lung
HT29 colon = tested on: HT29 colon
HL-60(TB) leukemia = tested on: HL-60(TB) leukemia
RXF 393 renal = tested on: RXF 393 renal
MOLT-4 leukemia = tested on: MOLT-4 leukemia
NCI-H460 lung = tested on: NCI-H460 lung
HS 578T breast = tested on: HS 578T breast
SF-539 CNS = tested on: SF-539 CNS
A549 NSCLC = tested on: A549 NSCLC
EKVX NSCLC = tested on: EKVX NSCLC

In the case of O=C(CCCCN1CCOCC1)Nc1ccc(Cn2nnc3c2C(=O)c2nnn(Cc4ccc(NC(=O)CCCCN5CCOCC5)cc4)c2C3=O)cc1, the GI50 (OVCAR-4 ovarian) is reported as 177 nM, the TGI (OVCAR-4 ovarian) is reported as 769 nM and the GI50 (CAKI-1 renal) is reported as 1430 nM. For the same molecule, the TGI (CAKI-1 renal) was 28200 nM, the GI50 (A498 renal) was 906 nM and the TGI (A498 renal) was 1820 nM. It also gave a GI50 (SN12C renal) of 94.6 nM, a TGI (SN12C renal) of 203 nM and a GI50 (HCT-15 colon) of 629 nM. It also gave a TGI (HCT-15 colon) of 1550 nM, a GI50 (HOP-92 NSCLC) of 808 nM and a TGI (HOP-92 NSCLC) of 1760 nM. For the same molecule, the GI50 (RPMI-8226 leukemia) was 596 nM, the TGI (RPMI-8226 leukemia) was 2030 nM and the GI50 (MCF7 breast) was 84.9 nM. The TGI (MCF7 breast) was 195 nM, the GI50 (NCI-H226 lung) was 723 nM and the TGI (NCI-H226 lung) was 1840 nM. For the same molecule, the GI50 (UO-31 renal) was 1240 nM, the TGI (UO-31 renal) was 17500 nM and the GI50 (KM12 colon) was 574 nM. It also gave a TGI (KM12 colon) of 1720 nM, a GI50 (UACC-257 melanoma) of 141 nM and a TGI (UACC-257 melanoma) of 399 nM. The GI50 (BT-549 breast) was 722 nM, the TGI (BT-549 breast) was 1410 nM and the GI50 (HOP-62 NSCLC) was 745 nM. It also gave a TGI (HOP-62 NSCLC) of 1490 nM, a GI50 (PC-3 prostate) of 404 nM and a TGI (PC-3 prostate) of 2570 nM. For the same molecule, the GI50 (SNB-75 CNS) was 234 nM, the TGI (SNB-75 CNS) was 806 nM and the GI50 (COLO 205 colon) was 95.9 nM. It also gave a TGI (COLO 205 colon) of 186 nM, a GI50 (MDA-MB-435) of 94.8 nM and a TGI (MDA-MB-435) of 170 nM. For the same molecule, the GI50 (TK-10 renal) was 2020 nM, the TGI (TK-10 renal) was 39600 nM and the GI50 (SF-295 CNS) was 381 nM. It also gave a TGI (SF-295 CNS) of 1050 nM, a GI50 (SF-268 CNS) of 400 nM and a TGI (SF-268 CNS) of 1600 nM. The GI50 (HCC-2998 colon) was 181 nM, the TGI (HCC-2998 colon) was 594 nM and the GI50 (SK-MEL-5 melanoma) was 71.7 nM. For the same molecule, the TGI (SK-MEL-5 melanoma) was 141 nM, the GI50 (HCT-116 colon) was 160 nM and the TGI (HCT-116 colon) was 584 nM. For the same molecule, the GI50 (SNB-19 CNS) was 187 nM, the TGI (SNB-19 CNS) was 566 nM and the GI50 (SW-620 colon) was 201 nM. It also gave a TGI (SW-620 colon) of 800 nM, a GI50 (SK-OV-3 ovarian) of 930 nM and a TGI (SK-OV-3 ovarian) of 1830 nM. It also gave a GI50 (MDA-MB-231 breast) of 199 nM, a TGI (MDA-MB-231 breast) of 50000 nM and a GI50 (SK-MEL-28 melanoma) of 260 nM. The TGI (SK-MEL-28 melanoma) was 642 nM, the GI50 (NCI-H522 lung) was 113 nM and the TGI (NCI-H522 lung) was 362 nM. The GI50 (M14 melanoma) was 264 nM, the TGI (M14 melanoma) was 903 nM and the GI50 (SK-MEL-2 melanoma) was 351 nM. The TGI (SK-MEL-2 melanoma) was 1220 nM, the GI50 (MALME-3M melanoma) was 72 nM and the TGI (MALME-3M melanoma) was 163 nM. It also gave a GI50 (OVCAR-8 ovarian) of 257 nM, a TGI (OVCAR-8 ovarian) of 1140 nM and a GI50 (ACHN renal) of 758 nM. For the same molecule, the TGI (ACHN renal) was 1810 nM, the GI50 (OVCAR-3 ovarian) was 167 nM and the TGI (OVCAR-3 ovarian) was 559 nM. The GI50 (IGROV1 ovarian) was 669 nM, the TGI (IGROV1 ovarian) was 1460 nM and the GI50 (DU-145 prostate) was 459 nM. It also gave a TGI (DU-145 prostate) of 1050 nM, a GI50 (OVCAR-5 ovarian) of 107 nM and a TGI (OVCAR-5 ovarian) of 244 nM. It also gave a GI50 (SR leukemia) of 406 nM, a TGI (SR leukemia) of 2650 nM and a GI50 (UACC-62 melanoma) of 116 nM. For the same molecule, the TGI (UACC-62 melanoma) was 341 nM, the GI50 (786-0 renal) was 1070 nM and the TGI (786-0 renal) was 3380 nM. It also gave a GI50 (CCRF-CEM leukemia) of 271 nM, a TGI (CCRF-CEM leukemia) of 2700 nM and a GI50 (LOX IMVI melanoma) of 115 nM. The TGI (LOX IMVI melanoma) was 305 nM, the GI50 (U251 CNS) was 329 nM and the TGI (U251 CNS) was 879 nM. For the same molecule, the GI50 (NCI-H23 lung) was 154 nM, the TGI (NCI-H23 lung) was 522 nM and the GI50 (HT29 colon) was 178 nM. It also gave a TGI (HT29 colon) of 837 nM, a GI50 (HL-60(TB) leukemia) of 157 nM and a TGI (HL-60(TB) leukemia) of 687 nM. It also gave a GI50 (RXF 393 renal) of 717 nM, a TGI (RXF 393 renal) of 1810 nM and a GI50 (MOLT-4 leukemia) of 183 nM. The TGI (MOLT-4 leukemia) was 788 nM, the GI50 (NCI-H460 lung) was 112 nM and the TGI (NCI-H460 lung) was 530 nM. For the same molecule, the GI50 (HS 578T breast) was 1090 nM, the TGI (HS 578T breast) was 13800 nM and the GI50 (SF-539 CNS) was 132 nM. For the same molecule, the TGI (SF-539 CNS) was 355 nM, the GI50 (A549 NSCLC) was 397 nM and the TGI (A549 NSCLC) was 1110 nM. It also gave a GI50 (EKVX NSCLC) of 776 nM and a TGI (EKVX NSCLC) of 1520 nM.
